From ChEMBL document CHEMBL2029347, “Identification of blapsins A and B as potent small-molecule 14-3-3 inhibitors from the insect Blaps japanensis” (Bioorg Med Chem Lett, 2012) come the findings set out here.

For experiment [1], the target named is T1, 14-3-3 protein gamma (Homo sapiens, UniProt P61981).
T1 sequence (P61981 whole entry): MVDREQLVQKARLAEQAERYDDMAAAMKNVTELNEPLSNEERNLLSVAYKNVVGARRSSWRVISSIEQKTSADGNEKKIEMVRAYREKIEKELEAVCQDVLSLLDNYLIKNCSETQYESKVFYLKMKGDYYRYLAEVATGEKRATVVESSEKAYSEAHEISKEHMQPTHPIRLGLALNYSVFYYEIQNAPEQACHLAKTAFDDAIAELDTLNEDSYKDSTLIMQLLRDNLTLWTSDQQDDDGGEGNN
As to the kind of experiment: Inhibition of recombinant GST-tagged 14-3-3gamma interaction with TMR-pS259-Raf peptide after 30 mins by fluorescence polarization assay. A general note: Polarisation of emitted light reports the rotation of a fluorescent probe.

In experiment [2] the target is T1, 14-3-3 protein gamma. The experiment is described as follows: Inhibition of recombinant GST-tagged 14-3-3gamma interaction with PRAS40 in Cos7 cell lysate by ELISA. The class given is cell-free. On the technique in general: ELISA stands for enzyme-linked immunosorbent assay.

Molecules are shown by their SMILES.

As usually defined, the IC50 is the concentration that gives 50% inhibition. Take `Oc1ccc(C2OCCc3cc(O)c(O)cc32)cc1O` (racemic) [BLAPSIN B]: the IC50 in experiment [1] amounted to 2.5 µM; in experiment [2], 10 µM.
The matching figures for `O=C(Cc1ccc(O)c(O)c1)OCCc1ccc(O)c(O)c1` [BLAPSIN A]: 2 µM and 9.2 µM.
